Measured values from ChEMBL document CHEMBL3991601, “The target landscape of clinical kinase drugs” (Science, 2017).
Calls of active or inactive are those of the source. Cut-off read from the data, not from the text of the source, for most assays here: actives have a measured Kd and inactives only a lower limit.

Assays:
[1] = biological target: T1, Succinate--CoA ligase [ADP-forming] subunit beta, mitochondrial (Homo sapiens, UniProt Q9P2R7)
T1 sequence (Q9P2R7 whole entry): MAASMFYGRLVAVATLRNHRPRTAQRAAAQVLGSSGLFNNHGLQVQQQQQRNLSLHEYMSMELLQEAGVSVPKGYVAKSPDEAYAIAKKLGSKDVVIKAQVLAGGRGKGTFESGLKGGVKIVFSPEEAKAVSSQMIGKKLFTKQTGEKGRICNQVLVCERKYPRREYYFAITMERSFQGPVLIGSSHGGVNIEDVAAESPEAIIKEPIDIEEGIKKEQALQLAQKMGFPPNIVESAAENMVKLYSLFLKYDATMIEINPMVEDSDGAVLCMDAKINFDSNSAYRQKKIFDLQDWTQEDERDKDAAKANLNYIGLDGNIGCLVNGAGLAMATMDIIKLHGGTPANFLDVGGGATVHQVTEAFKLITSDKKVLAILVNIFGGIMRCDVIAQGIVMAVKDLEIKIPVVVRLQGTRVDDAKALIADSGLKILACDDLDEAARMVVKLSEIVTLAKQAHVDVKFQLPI

[2] = biological target: T2, Mitogen-activated protein kinase kinase kinase 2 (Homo sapiens, UniProt Q9Y2U5)
T2 sequence (Q9Y2U5 whole entry): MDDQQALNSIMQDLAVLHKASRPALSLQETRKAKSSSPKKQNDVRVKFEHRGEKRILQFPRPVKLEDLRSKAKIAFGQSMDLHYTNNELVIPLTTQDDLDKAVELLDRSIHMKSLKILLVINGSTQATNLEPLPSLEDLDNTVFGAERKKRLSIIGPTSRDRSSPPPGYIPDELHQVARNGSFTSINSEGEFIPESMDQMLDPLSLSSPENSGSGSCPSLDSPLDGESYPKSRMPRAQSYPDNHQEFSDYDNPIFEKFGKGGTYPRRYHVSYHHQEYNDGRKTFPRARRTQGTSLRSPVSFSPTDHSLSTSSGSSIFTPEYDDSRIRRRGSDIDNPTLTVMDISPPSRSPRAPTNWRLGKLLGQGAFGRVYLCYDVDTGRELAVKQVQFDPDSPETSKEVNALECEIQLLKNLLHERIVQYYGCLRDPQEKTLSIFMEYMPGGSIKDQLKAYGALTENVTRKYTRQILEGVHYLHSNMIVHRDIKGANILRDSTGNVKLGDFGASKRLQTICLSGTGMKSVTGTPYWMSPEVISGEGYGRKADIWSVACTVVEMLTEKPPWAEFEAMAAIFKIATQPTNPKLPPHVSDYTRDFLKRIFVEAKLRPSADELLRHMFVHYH

[3] = biological target: Mitotic checkpoint serine/threonine-protein kinase BUB1 (Homo sapiens, UniProt O43683)
[4] = biological target: T3, Mitogen-activated protein kinase kinase kinase 6 (Homo sapiens, UniProt O95382)
T3 sequence (O95382 whole entry): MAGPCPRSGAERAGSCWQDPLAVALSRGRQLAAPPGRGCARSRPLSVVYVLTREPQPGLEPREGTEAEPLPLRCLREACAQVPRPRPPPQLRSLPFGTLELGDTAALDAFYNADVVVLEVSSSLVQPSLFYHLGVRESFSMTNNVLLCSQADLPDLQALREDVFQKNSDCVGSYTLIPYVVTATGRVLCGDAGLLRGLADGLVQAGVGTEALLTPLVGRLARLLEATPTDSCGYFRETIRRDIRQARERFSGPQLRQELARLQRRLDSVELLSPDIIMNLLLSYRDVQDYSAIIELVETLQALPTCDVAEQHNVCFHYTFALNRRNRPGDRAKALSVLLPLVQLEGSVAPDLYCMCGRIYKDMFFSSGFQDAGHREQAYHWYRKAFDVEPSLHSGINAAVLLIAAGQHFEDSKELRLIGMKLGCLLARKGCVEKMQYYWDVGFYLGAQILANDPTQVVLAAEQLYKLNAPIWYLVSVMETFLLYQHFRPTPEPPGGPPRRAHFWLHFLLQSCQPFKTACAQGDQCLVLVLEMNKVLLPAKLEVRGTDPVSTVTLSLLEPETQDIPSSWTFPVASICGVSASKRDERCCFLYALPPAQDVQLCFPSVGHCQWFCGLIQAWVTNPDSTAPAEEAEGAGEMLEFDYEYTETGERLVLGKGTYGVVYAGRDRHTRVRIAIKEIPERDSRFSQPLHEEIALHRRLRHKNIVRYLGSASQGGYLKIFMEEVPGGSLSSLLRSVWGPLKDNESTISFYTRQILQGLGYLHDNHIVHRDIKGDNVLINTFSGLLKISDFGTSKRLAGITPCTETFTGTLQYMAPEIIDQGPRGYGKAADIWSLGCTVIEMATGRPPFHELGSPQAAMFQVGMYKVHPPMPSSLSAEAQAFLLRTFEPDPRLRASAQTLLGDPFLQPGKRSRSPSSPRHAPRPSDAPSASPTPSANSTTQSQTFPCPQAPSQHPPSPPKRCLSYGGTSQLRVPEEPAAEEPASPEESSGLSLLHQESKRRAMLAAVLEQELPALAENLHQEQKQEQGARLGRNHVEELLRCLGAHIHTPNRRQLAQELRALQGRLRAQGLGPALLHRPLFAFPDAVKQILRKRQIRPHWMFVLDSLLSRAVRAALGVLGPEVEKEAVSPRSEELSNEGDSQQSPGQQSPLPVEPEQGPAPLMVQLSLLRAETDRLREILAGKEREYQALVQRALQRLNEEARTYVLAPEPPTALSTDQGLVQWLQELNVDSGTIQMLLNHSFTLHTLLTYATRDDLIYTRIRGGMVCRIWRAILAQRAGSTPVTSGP

[5] = biological target: T4, Dual specificity mitogen-activated protein kinase kinase 3 (Homo sapiens, UniProt P46734)
T4 sequence (P46734 whole entry): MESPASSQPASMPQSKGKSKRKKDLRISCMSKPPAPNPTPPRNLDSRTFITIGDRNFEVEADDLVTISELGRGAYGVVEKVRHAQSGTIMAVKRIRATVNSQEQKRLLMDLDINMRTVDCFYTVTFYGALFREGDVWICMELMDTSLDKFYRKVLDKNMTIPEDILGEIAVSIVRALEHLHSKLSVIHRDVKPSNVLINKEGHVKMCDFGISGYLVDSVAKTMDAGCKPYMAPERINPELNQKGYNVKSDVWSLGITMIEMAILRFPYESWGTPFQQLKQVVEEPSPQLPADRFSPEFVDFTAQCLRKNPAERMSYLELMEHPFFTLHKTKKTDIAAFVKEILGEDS

[6] = biological target: Glycogen synthase kinase-3 beta (Homo sapiens, UniProt P49841)
[7] = biological target: Tyrosine-protein kinase JAK1 (Homo sapiens, UniProt P23458)
[8] = biological target: MAP/microtubule affinity-regulating kinase 3 (Homo sapiens, UniProt P27448)
[9] = biological target: Dual specificity mitogen-activated protein kinase kinase 1 (Homo sapiens, UniProt Q02750)
Note: in the data inactive means no Kd found up to 30 µM.

Chain of MAP/microtubule affinity-regulating kinase 3 (P27448 whole entry): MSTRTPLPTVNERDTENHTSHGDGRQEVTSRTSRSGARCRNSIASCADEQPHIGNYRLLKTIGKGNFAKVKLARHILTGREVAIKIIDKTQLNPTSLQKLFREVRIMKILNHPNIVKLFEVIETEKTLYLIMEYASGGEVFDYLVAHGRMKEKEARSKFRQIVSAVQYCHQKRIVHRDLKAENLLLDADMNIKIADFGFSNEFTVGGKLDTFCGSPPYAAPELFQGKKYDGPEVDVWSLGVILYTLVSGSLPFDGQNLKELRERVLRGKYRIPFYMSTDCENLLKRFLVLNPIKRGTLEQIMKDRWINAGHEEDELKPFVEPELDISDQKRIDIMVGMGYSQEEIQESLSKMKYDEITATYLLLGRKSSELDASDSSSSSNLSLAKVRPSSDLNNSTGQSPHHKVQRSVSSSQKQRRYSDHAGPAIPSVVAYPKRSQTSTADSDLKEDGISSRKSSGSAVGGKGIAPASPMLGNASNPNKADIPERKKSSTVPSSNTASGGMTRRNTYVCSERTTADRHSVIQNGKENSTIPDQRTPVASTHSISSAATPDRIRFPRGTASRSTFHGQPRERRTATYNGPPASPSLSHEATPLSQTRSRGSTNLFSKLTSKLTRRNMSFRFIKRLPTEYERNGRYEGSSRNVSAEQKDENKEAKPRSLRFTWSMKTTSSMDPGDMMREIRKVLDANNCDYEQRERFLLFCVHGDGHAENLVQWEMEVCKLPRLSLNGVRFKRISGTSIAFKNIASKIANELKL
Chain of Glycogen synthase kinase-3 beta (P49841 whole entry): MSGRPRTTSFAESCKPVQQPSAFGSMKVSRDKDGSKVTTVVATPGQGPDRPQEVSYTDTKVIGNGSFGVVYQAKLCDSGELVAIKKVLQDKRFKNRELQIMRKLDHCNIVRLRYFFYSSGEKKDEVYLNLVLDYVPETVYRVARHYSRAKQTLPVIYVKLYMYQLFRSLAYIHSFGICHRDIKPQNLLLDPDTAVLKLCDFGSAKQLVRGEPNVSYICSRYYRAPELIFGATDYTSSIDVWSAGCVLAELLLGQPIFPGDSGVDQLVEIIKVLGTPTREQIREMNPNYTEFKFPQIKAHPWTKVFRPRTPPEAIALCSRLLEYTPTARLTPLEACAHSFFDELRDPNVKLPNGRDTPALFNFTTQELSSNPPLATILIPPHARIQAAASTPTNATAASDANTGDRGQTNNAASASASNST
Chain of Mitotic checkpoint serine/threonine-protein kinase BUB1 (O43683 whole entry): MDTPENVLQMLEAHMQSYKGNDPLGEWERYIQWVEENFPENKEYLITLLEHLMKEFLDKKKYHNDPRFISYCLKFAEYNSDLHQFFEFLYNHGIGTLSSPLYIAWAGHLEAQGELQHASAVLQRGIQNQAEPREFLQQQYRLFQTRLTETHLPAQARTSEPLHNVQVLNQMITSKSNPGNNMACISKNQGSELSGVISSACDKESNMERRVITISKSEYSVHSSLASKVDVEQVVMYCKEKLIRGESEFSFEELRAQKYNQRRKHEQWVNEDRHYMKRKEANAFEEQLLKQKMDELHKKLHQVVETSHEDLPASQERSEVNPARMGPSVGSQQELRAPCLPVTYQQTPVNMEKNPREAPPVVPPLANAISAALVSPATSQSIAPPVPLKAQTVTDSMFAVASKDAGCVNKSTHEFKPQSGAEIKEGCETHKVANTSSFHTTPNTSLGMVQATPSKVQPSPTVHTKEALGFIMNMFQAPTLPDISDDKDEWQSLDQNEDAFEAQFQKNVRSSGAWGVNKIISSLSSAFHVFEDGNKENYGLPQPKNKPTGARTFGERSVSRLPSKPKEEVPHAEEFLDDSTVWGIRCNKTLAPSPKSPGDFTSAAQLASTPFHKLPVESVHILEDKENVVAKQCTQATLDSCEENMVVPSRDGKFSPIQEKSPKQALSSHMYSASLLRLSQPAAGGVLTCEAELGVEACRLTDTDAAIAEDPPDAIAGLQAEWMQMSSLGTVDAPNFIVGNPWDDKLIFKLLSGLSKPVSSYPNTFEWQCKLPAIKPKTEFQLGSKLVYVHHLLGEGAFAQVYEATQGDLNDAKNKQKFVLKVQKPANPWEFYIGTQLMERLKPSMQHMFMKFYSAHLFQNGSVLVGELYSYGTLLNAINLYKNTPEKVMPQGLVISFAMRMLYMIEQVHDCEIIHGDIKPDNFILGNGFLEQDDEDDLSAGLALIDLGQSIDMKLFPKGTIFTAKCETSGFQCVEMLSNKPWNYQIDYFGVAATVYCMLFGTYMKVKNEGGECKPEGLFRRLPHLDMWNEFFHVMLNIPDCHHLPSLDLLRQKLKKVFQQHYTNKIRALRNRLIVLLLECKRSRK
Chain of Tyrosine-protein kinase JAK1 (P23458 whole entry): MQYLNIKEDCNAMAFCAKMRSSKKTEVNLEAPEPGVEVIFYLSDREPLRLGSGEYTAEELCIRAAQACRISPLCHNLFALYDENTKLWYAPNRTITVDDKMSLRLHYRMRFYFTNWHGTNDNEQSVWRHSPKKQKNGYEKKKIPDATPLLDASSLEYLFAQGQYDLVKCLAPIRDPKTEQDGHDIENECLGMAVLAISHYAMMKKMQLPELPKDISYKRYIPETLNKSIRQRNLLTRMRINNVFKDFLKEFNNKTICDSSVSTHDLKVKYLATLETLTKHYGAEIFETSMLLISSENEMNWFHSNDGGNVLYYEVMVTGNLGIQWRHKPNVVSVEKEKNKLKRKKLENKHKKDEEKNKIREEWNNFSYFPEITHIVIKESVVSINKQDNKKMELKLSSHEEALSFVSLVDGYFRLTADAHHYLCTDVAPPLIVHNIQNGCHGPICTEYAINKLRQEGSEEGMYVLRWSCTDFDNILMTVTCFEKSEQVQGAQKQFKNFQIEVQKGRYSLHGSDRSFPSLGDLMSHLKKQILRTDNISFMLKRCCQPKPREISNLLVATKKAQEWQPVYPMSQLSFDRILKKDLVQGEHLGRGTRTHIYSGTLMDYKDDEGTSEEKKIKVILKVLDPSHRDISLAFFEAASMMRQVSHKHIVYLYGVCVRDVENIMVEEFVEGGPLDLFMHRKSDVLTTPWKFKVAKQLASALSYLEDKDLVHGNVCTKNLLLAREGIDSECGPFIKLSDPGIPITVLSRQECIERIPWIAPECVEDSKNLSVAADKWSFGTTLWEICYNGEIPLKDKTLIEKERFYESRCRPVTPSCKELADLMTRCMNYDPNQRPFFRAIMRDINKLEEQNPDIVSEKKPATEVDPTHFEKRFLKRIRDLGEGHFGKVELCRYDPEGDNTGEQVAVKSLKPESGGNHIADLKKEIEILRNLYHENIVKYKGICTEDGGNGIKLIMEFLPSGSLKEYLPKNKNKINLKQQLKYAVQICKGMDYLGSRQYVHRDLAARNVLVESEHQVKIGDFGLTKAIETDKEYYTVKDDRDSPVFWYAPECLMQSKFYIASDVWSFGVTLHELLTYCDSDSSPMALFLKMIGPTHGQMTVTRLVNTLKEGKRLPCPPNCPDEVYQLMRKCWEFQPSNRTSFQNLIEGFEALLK
Chain of Dual specificity mitogen-activated protein kinase kinase 1 (Q02750 whole entry): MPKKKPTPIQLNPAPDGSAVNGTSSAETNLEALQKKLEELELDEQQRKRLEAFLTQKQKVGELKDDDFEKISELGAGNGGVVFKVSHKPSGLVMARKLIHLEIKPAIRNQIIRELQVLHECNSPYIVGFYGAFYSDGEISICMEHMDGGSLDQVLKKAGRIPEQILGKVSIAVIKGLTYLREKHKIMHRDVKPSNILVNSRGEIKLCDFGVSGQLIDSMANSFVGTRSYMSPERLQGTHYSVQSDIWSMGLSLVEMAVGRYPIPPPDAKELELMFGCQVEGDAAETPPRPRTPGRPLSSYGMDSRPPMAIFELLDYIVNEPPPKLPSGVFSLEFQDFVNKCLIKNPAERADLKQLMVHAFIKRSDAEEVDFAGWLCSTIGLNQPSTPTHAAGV

Structure (SMILES)	Kd [1]	Kd [2]	Kd [3]	Kd [4]	Kd [5]	Kd [6]	Kd [7]	Kd [8]	Kd [9]
CO[C@H]1C[C@@H]2CC[C@@H](C)[C@@](O)(O2)C(=O)C(=O)N2CCCC[C@H]2C(=O)O[C@H]([C@H](C)C[C@@H]2CC[C@@H](OCCO)[C@H](OC)C2)CC(=O)[C@H](C)/C=C(\C)[C@@H](O)[C@@H](OC)C(=O)[C@H](C)C[C@H](C)/C=C/C=C/C=C/1C [EVEROLIMUS]	> 30 µM (inactive)	> 30 µM (inactive)	> 30 µM (inactive)	> 30 µM (inactive)	> 30 µM (inactive)	> 30 µM (inactive)	> 30 µM (inactive)	> 30 µM (inactive)	> 30 µM (inactive)
CCN1CCN(Cc2ccc(-c3cc4c(N[C@H](C)c5ccccc5)ncnc4[nH]3)cc2)CC1 [AEE-788]	> 30 µM (inactive)	> 30 µM (inactive)	> 30 µM (inactive)	> 30 µM (inactive)	> 30 µM (inactive)	> 30 µM (inactive)	> 30 µM (inactive)	> 30 µM (inactive)	> 30 µM (inactive)
O=C(O)[C@]1(Cc2cccc(Nc3nccs3)n2)CC[C@@H](Oc2cccc(Cl)c2F)CC1 [MK-5108]	> 30 µM (inactive)	> 30 µM (inactive)	> 30 µM (inactive)	> 30 µM (inactive)	> 30 µM (inactive)	> 30 µM (inactive)	> 30 µM (inactive)	> 30 µM (inactive)	> 30 µM (inactive)
C1=C/COCc2cc(ccc2OCCN2CCCC2)Nc2nccc(n2)-c2cccc(c2)COC/1 [PACRITINIB]	> 30 µM (inactive)	> 30 µM (inactive)	> 30 µM (inactive)	> 30 µM (inactive)	> 30 µM (inactive)	> 30 µM (inactive)	> 30 µM (inactive)	> 30 µM (inactive)	> 30 µM (inactive)
N[C@@H]1CCCN(c2c(/C=C3\SC(=O)NC3=O)cccc2-c2ccccc2)C1	> 30 µM (inactive)	> 30 µM (inactive)	> 30 µM (inactive)	> 30 µM (inactive)	> 30 µM (inactive)	> 30 µM (inactive)	> 30 µM (inactive)	> 30 µM (inactive)	> 30 µM (inactive)
Cc1ccc(NC(=O)c2ccc(CN3CC[C@H](N(C)C)C3)c(C(F)(F)F)c2)cc1Nc1nccc(-c2cncnc2)n1 [BAFETINIB]	> 30 µM (inactive)	> 30 µM (inactive)	> 30 µM (inactive)	> 30 µM (inactive)	> 30 µM (inactive)	> 30 µM (inactive)	> 30 µM (inactive)	> 30 µM (inactive)	> 30 µM (inactive)
O=C(Nc1ccc(-c2ccnc(Nc3ccc(N4CCOCC4)cc3)n2)cc1)C1CCCN1 (centres undefined) [XL-019]	> 30 µM (inactive)	> 30 µM (inactive)	0.39 µM (active)	> 30 µM (inactive)	> 30 µM (inactive)	> 30 µM (inactive)	> 30 µM (inactive)	1.61 µM (active)	> 30 µM (inactive)
O=C(c1ccc(F)c(F)c1Nc1ccc(I)cc1F)N1CC(O)([C@@H]2CCCCN2)C1 [COBIMETINIB]	> 30 µM (inactive)	> 30 µM (inactive)	> 30 µM (inactive)	> 30 µM (inactive)	> 30 µM (inactive)	> 30 µM (inactive)	> 30 µM (inactive)	> 30 µM (inactive)	0.309 µM (active)
C[C@@H]1CN(Cc2ccc(F)cc2)[C@@H](C)CN1C(=O)c1cc2c(C(=O)C(=O)N(C)C)cn(C)c2cc1Cl [TALMAPIMOD]	> 30 µM (inactive)	> 30 µM (inactive)	> 30 µM (inactive)	> 30 µM (inactive)	> 30 µM (inactive)	> 30 µM (inactive)	> 30 µM (inactive)	> 30 µM (inactive)	> 30 µM (inactive)
Cc1cc(-c2cc(O)ccc2Cl)cc2nnc(Nc3ccc(OCCN4CCCC4)cc3)nc12	> 30 µM (inactive)	> 30 µM (inactive)	> 30 µM (inactive)	> 30 µM (inactive)	> 30 µM (inactive)	> 30 µM (inactive)	> 30 µM (inactive)	> 30 µM (inactive)	> 30 µM (inactive)
Cc1cc([C@@H](C)Nc2ccccc2C(=O)O)c2nc(N3CCOCC3)cc(=O)n2c1 [AZD-6482]	> 30 µM (inactive)	> 30 µM (inactive)	> 30 µM (inactive)	> 30 µM (inactive)	> 30 µM (inactive)	> 30 µM (inactive)	> 30 µM (inactive)	> 30 µM (inactive)	> 30 µM (inactive)
